System in one data set: not listed separately
Description: Cmax in rats. It counts as ADME, organism-based. The following applies: rat, in vivo.
Chain of Coagulation factor X (P00742 41-179 limits assumed): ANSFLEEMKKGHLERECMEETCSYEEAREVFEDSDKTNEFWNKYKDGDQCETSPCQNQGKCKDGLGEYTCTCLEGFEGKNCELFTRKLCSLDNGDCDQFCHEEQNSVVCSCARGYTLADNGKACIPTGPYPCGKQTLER
Chain of Coagulation factor X (P00742 235-488 limits assumed): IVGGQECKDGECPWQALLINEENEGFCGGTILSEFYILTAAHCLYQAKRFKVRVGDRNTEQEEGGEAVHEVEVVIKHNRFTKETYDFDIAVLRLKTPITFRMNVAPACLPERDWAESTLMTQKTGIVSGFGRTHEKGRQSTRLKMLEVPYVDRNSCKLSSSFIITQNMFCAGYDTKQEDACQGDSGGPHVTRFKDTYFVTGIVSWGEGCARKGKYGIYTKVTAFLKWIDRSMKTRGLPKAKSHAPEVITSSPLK
`C/C(=C(\F)C(=O)Nc1ccc(-c2ccccc2S(N)(=O)=O)cc1Br)c1cccc(C(=N)N)c1` showed a Cmax of 168 ng/mL.
The same measure, in the same setting: for `C/C(=C(\F)C(=O)Nc1ccc(-c2ccccc2S(N)(=O)=O)cc1Br)c1cccc(C(=N)NO)c1` the value was 630 ng/mL.

System in another data set: not listed separately
Description: Oral bioavailability in dog. The following applies: in vivo. It counts as ADME, organism-based, Canis lupus familiaris.
The molecule `N=C(NO)c1cccc(/C(=C(/F)C(=O)Nc2ccc(-c3ccccc3S(N)(=O)=O)cc2)n2cccn2)c1` returned a bioavailability of 25%.
Same read-out and setting: with `N=C(N)c1cccc(/C(=C(/F)C(=O)Nc2ccc(-c3ccccc3S(N)(=O)=O)cc2)n2cccn2)c1` the figure was under 5%.

Another data set addresses Prothrombin (Homo sapiens, UniProt P00734). Kind of data set: Inhibitory concentration required against Thrombin.
Settings: not given
Molecule `C/C(=C1\CC(=O)N(c2ccc(C(=O)N3CCCC3)cc2)C1=O)c1cccc(C(=N)N)c1` registered a half-inhibitory concentration (IC50) of 10700 nM.
Still for that read-out and setting: with `C/C(=C1\CC(=O)N(c2ccc(-c3ccccc3S(N)(=O)=O)cc2)C1=O)c1cccc(C(=N)N)c1` the figure was 670 nM.
On the same count and under the same terms, with `C/C(=C1\CC(=O)N(c2ccc(C(C)(C)C)cc2)C1=O)c1cccc(C(=N)N)c1` the figure was 76 nM.
Still for that read-out and setting: for `C/C(=C(\CC(N)=O)C(=O)Nc1ccc(-c2ccccc2S(N)(=O)=O)cc1)c1cccc(C(=N)N)c1` the value was 1600 nM.

A further data set concerns the target Coagulation factor X (Homo sapiens, UniProt P00742). Kind of data set: Inhibitory concentration to coagulation factor X.
Settings: not given
As to `C/C(=C(\F)C(=O)Nc1ccc(-c2ccccc2S(N)(=O)=O)cc1)c1cccc(C(=N)NO)c1`, the IC50 came out at 440 nM.
The same measure, in the same setting: with `C/C(=C1\CC(=O)N(c2ccc(-c3ccccc3S(N)(=O)=O)cc2)C1=O)c1cccc(C(=N)NN)c1` the figure was 78 nM.
The molecule `C/C(=C(\F)C(=O)Nc1ccc(-c2ccccc2S(N)(=O)=O)cc1F)c1cccc(C(=N)NN)c1` had a concentration for half-maximal inhibition (IC50) of 110 nM. This IC50 and that of the molecule before are within 1.5-fold of each other.
Still for that read-out and setting: for `C/C(=C(\F)C(=O)Nc1ccc(-c2ccccc2S(N)(=O)=O)cc1)c1cccc(C(=N)NNc2ccccc2)c1` the value was 750 nM; for `C/C(=C(\F)C(=O)Nc1ccc(-c2ccccc2S(N)(=O)=O)cc1)c1cccc(C(=N)NC#N)c1`, 253 nM; for `CC(c1cccc(C(=N)N)c1)C1CC(=O)N(c2ccc(-c3ccccc3S(N)(=O)=O)cc2)C1=O` (stereo unspecified), 120 nM.
As for `CNNC(=N)c1cccc(/C(C)=C(/F)C(=O)Nc2ccc(-c3ccccc3S(N)(=O)=O)cc2)c1`, the IC50 came to 28 nM.
In turn, `C/C(=C1\CC(=O)N(c2ccc(C(=O)N3CCCC3)cc2)C1=O)c1cccc(C(=N)N)c1` had an IC50 of 180 nM.
Same read-out and setting: for `C/C(=C(\F)C(=O)Nc1ccc(-c2ccccc2S(N)(=O)=O)cc1)c1cccc(C(=N)N2CCC2)c1` the value was 890 nM; for `CNNC(=N)c1cccc(/C(C)=C2/CC(=O)N(c3ccc(-c4ccccc4S(N)(=O)=O)cc3)C2=O)c1`, 48 nM.
Same read-out and setting: with `C/N=C(\N)c1cccc(/C(C)=C(/F)C(=O)Nc2ccc(-c3ccccc3S(N)(=O)=O)cc2)c1` the figure was 890 nM; with `N=C(NO)c1cccc(/C(=C(/F)C(=O)Nc2ccc(-c3ccccc3S(N)(=O)=O)cc2)n2cccn2)c1`, 3790 nM; with `C/C(=C(\F)C(=O)Nc1ccc(-c2ccccc2S(N)(=O)=O)cc1Br)c1cccc(C(=N)NN)c1`, 57 nM.
The same measure, in the same setting: with `C/C(=C(\F)C(=O)Nc1ccc(-c2ccccc2S(N)(=O)=O)cc1)c1ccc2[nH]nc(N)c2c1` the figure was 5910 nM; with `C/C(=C(\F)C(=O)Nc1ccc(-c2ccccc2S(N)(=O)=O)cc1Cl)c1cccc(C(=N)NN)c1`, 41 nM; with `C/C(=C(\F)C(=O)Nc1ccc(-c2ccccc2S(N)(=O)=O)cc1)c1cccc(C(=N)NNCC(F)(F)F)c1`, 420 nM.
Molecule `C/C(=C1\CC(=O)N(c2ccc(C(C)(C)C)cc2)C1=O)c1cccc(C(=N)N)c1` came in with an IC50 of 29 nM.
Same read-out and setting: for `C/C(=C(\F)C(=O)Nc1ccc(-c2ccccc2S(N)(=O)=O)cc1)c1cccc(C(=N)NN(C)C)c1` the value was 490 nM.
Still for that read-out and setting: for `C/C(=C(\F)C(=O)Nc1ccc(-c2ccccc2S(N)(=O)=O)cc1F)c1cccc(C(=N)NO)c1` the value was 1590 nM; for `N=C(N)c1cccc(/C(=C(/F)C(=O)Nc2ccc(-c3ccccc3S(N)(=O)=O)cc2)n2cccn2)c1`, 1 nM.
The same measure, in the same setting: with `C/C(=C(\F)C(=O)Nc1ccc(-c2ccccc2S(N)(=O)=O)cc1Br)c1cccc(C(=N)NO)c1` the figure was 1180 nM.
Consider `C/C(=C(\F)C(=O)Nc1ccc(-c2ccccc2S(N)(=O)=O)cc1Cl)c1cccc(C(=N)NO)c1`, for which half-maximal inhibition (IC50) required 750 nM. Against the preceding molecule, the IC50 is about 1.6-fold lower.
Same read-out and setting: for `C/C(=C1\CC(=O)N(c2ccc(-c3ccccc3S(N)(=O)=O)cc2)C1=O)c1cccc(C(=N)NO)c1` the value was 710 nM.

Values taken from ChEMBL document CHEMBL1136273, “Design and synthesis of factor Xa inhibitors and their prodrugs” (Bioorg Med Chem Lett, 2003).
